According to patent US20240400572A1, “COMPOUNDS AND METHODS FOR TREATING CANCERS THAT ARE MGMT DEFICIENT REGARDLESS OF MMR STATUS” (Yale University, priority 2021, published 2024):

Tests used:
[1] = test system: PEO4 (BRCA2+) and PEO1 (BRCA2−/−) cells; assay: Short-term cell viability assay in PEO1/4 model; type: cell-based, human
Experimental: FIGS. Z4A-Z4I. KL-50 (4a) activates DNA damage response pathways and cycle arrest in MGMT− cells, independent of MMR, and induces sensitivity in cells deficient in ICL or HR repair. (FIGS. Z4A, Z4B, and Z4C) Phospho-SER139-H2AX (γH2AX) (A), 53BP1 (FIG. Z4B), and phospo-SER33-RPA2 (pRPA) (FIG. Z4C) foci formation quantified by % cells with 10 foci in LN229 MGMT+/−, MMR+/− cells treated with 0.1% DMSO control, 20 μM KL-50 (4a), or 20 μM TMZ (1a) for 48 h. Columns, mean; error bars, SD; n≥5 technical replicates. Additional time course data is presented in FIG. ZS6B to D. (FIG. Z4D) Representative foci images of data in (FIG. Z4A) to (FIG. Z4C). (FIG. Z4E) Percentage of cells in G1, S, and G2 cell cycle phases after treatment as in (A) to (C), measured using integrated nuclear (Hoechst) staining intensity. Columns, mean; error bars, SD; n=3 independent analyses. (FIG. Z4F) Change in percent cells with 1 micronuclei from baseline (DMSO control) after treatment as in (FIG. Z4A) to (FIG. Z4C). Columns, mean; error bars, SD; […] technical replicates; **** p<0.0001; ns, not significant. Additional validation is presented in FIG. ZS9, A and B. (FIG. Z4G) Short-term viability assay curves for KL-50 (4a) in PD20 cells, deficient in FANCD2 (FANCD2−/−) or complemented with FANCD2 (+FANCD2). (FIG. Z4H) Short-term viability assay curves for KL-50 (4a) in PEO4 (BRCA2+) and PEO1 (BRCA2−/−) cells pre-treated with 0.01% DMSO control or 10 μM O^6BG (+O^6BG) for 1 h prior to KL-50 (4a) addition. (FIG. Z4I) Short-term viability assay curves for KL-50 (4a) in DLD1 BRCA2+/− and BRCA2−/− cells pre-treated with 0.01% DMSO control or 10 μM O^6BG (+O^6BG) for 1 h prior to KL-50 (4a) addition. For (FIG. Z4G), (FIG. Z4H), and (FIG. Z4I), points, mean; error bars, SD; n=3 technical replicates.
Short-term Cell Viability Assay. Cells were seeded in 96-well plates at 1000 or 2000 cells/well and allowed to adhere at 23° C. for 60 min and then incubated overnight at 37° C. Cells were treated with indicated concentrations of compounds in triplicate for 4-6 days prior to fixation with 3.7% paraformaldehyde and nuclear staining with 1 μg/mL Hoechst 33342 dye. Cells were imaged on a Cytation 3 imaging reader (BioTek) and quantified using CellProfiler software.

[2] = test system: γH2AX, 53BP1 and pRPA foci in LN229 MGMT+/−, MMR+/− cells; assay: Immunofluorescence foci assays; type: cell-based, human; conditions: 20 μM; for γH2AX, 53BP1 and pRPA foci formation (in words): 2 to 48 h; for DDR foci across cell cycle phases (in words): 48 h, G1, S and G2 phases
Experimental: Immunofluorescence Foci Assays. High-throughput immunofluorescence foci assays were performed at the Yale Center for Molecular Discovery (YCMD). Cells were seeded at 2000 cells/well in black polystyrene flat bottom 384-well plates (Greiner Bio-One) and allowed to adhere overnight. Compound addition was performed utilizing a Labcyte Echo 550 liquid handler (Beckman Coulter), with 6 replicates per test condition and 12 replicates per control condition. Following drug incubation, cells were fixed and stained for phospho-SER139-H2AX (γH2AX), 53BP1, or phospho-SER33-RPA2 (pRPA) as follows.
γH2AX protocol: Cells were fixed with 4% paraformaldehyde in 1×PBS for 15 min, washed twice with 1×PBS, incubated in extraction buffer (0.5% Triton X-100 in 1×PBS) for 10 min, washed twice with 1×PBS, and incubated in blocking buffer (Blocker Casein in PBS, Thermo Scientific+5% goat serum, Life Technologies) for 1 h. Mouse anti-phospho-histone H2A.X (Ser139) antibody (clone JBW301, Millipore, 05-636) was added 1/1000 in blocking buffer at 4° C. overnight. After washing with 1×PBS, cells were incubated with goat anti-mouse IgG (H+L) highly cross-adsorbed secondary antibody, Alexa Fluor 647 (Invitrogen, A-21236) 1/500 and with 1 μg/mL Hoechst nucleic acid dye in blocking buffer for 2 h, and then washed with 1×PBS.
53BP1 protocol: Cells were fixed with 4% paraformaldehyde+0.02% Triton X-100 in 1×PBS for 20 minutes, washed twice with 1×PBS, and incubated in blocking buffer (10% FBS, 0.5% Triton X-100 in 1×PBS) for 1 h. Rabbit anti-53BP1 antibody (Novus Biologicals, NB100-904) was added 1/1000 in blocking buffer at 4° C. overnight. After washing with 1×PBS, cells were incubated with goat anti-rabbit IgG (H+L) highly cross-adsorbed secondary antibody, Alexa Fluor 647 (Invitrogen, A-21245) 1/500 and with 1 μg/mL Hoechst nucleic acid dye in blocking buffer for 2 h, and then washed with 1×PBS.
pRPA protocol: Cells were washed twice with 1×PBS on ice, incubated in extraction buffer (0.5% Triton X-100 in 1×PBS) for 5 min on ice, fixed with 3% paraformaldehyde+2% sucrose in 1×PBS for 15 min at 23° C., incubated again in extraction buffer for 5 min on ice, and incubated in blocking buffer (2% BSA, 10% milk, 0.1% Triton X-100 in 1×PBS) for 1 h at 23° C. Rabbit anti-phospho-RPA2 (S33) antibody (Bethyl Laboratories, A300-246A) was added 1/1000 in blocking buffer at 4° C. overnight. […]
Additional small scale immunofluorescence assays used for extended time course analysis of γH2AX foci were performed in Millicell EZSLIDE 8-well chamber slides (Millipore). […] Imaging was performed on a Keyence BZ-X800 fluorescence microscope at 40× magnification. […]

Q: `NC(=O)c1ncn2c(=O)n(CCF)nnc12` [KL-50, 3-(2-fluoroethyl)-4-oxo-3H,4H-imidazo[4,3-d][1,2,3,5]tetrazine-8-carboxamide] was tested. Which “therapeutic index (TI)” value ([1]; PEO1/4 model, ratio of IC50 values) did it give?
A: 62 fold

Q: And the “sensitivity of BRCA2-deficient cells (in words)” value ([1]; PEO1 versus PEO4, ± 10 μM O^6BG)?
A: BRCA2 loss enhanced the toxicity

Q: What about the “γH2AX, 53BP1 and pRPA foci formation (in words)” value [2] of the same molecule?
A: maximal foci response at 48 h, specifically in MGMT− cells and irrespective of MMR status

Q: And the “DDR foci across cell cycle phases (in words)” value [2]?
A: foci formation primarily in the S- and G2-phases of the cell cycle

Q: With `Cn1nnc2c(C(N)=O)ncn2c1=O` [TMZ, temozolomide, reference compound] as the molecule, how does the “γH2AX, 53BP1 and pRPA foci formation (in words)” value [2] read?
A: comparable response in MGMT− cells, but this was abolished in the absence of functional MMR

Q: And the “DDR foci across cell cycle phases (in words)” value [2]?
A: did not observe foci induction or micronuclei formation in MGMT−/MMR− cells
